Measured values: patent US6835382B2, “Ii peptide therapeutics to enhance antigen presentation” (University of Massachusetts, priority 1996, dated 2004)
Non-standard residues stand in square brackets, D forms with d. hArg = N=C(N)NCCCC[C@H](N)C(=O)O; Cit = NC(=O)NCCC[C@H](N)C(=O)O; Orn = NCCC[C@H](N)C(=O)O

Tested on: murine E^k MHC class II allele
Experiment: antigenic peptide prepulse assay, E^k allele (fixed APC prepulsed with PGCC81-104)
Format: cell-based
Details: for Activity in antigenic peptide prepulse assay, E^k (baseline = 1.0): Table 26, prepulse 1.25 μM antigenic peptide; for Activity in antigenic peptide prepulse assay, E^k (baseline without AE peptide = 1.00): Table 19, prepulse 20 μM PGCC81-104
Experimental: In a second type of assay, the “peptide prepulse assay”, the antigenic peptide is incubated with paraformaldehyde-fixed APC for 6 h. The APC are washed and incubated for 24 h with the AE101 series homolog and the T cell hybridoma specific for the antigenic peptide. After that incubation, an aliquot of the culture supernatant is transferred to a second culture to measure the relative degree of T hybridoma stimulation, as reflected in the effect of released interleukins on the growth of an interleukin-dependent, indicator cell line, as described above.
The two above described assays measure different aspects of the molecular mechanism of the AE101 series of peptides. In the “simultaneous assay”, AE101 series peptides are thought to induce the release of endogenously bound peptides and to permit the binding of the second, specific antigenic peptide which is relatively abundant in the culture fluid. The AE101 series peptides enhance antigenic peptide-specific T cell responses in simultaneous assays. In the “peptide prepulse” assay, the specific antigenic peptide becomes bound to MHC class II molecules on the surface of the fixed APC during the 6 h prepulse incubation. The effect of the AE101 series homologs is then thought to release that antigenic peptide, resulting in an apparent suppression of the immune response.
The AE101 series peptides are thought to contact the MHC class II molecules at a discrete site outside the antigenic peptide-binding groove. AE101 peptide binding to this “Ii-KEY” site is thought to induce a conformational change in the MHC class II molecules accelerating the dissociation of previously bound antigenic peptide. […] The AE101 series peptides thus inhibit antigenic peptide-specific T cell responses in the “peptide prepulse” assays.
Antigenic peptide-specific T cell activation was measured by the following procedure. Mitomycin C-treated A20 cells (A^dE^d) or CH27 cells APC (A^kE^k) were generated by incubating 5×10^6 cells/mL for 20 min at 37° C. with 0.025 mg/mL of mitomycin C (Sigma) in Dulbecco's Modified Eaglel's Medium (DMEM)/10 mM N-2(hydroxyethylpiperazine-N″[2-ethanesulfonic acid] (HEPES), followed by two washes with four volumes of DMEM-5% fetal calf serum (FCS), 10 mM HEPES. Fixed APC were generated by treating 1×10^6 cells/mL for 5 min with 0.5% paraformaldehyde in PBS (pH 7.2), followed by two washes with four volumes of DMEM-10% FCS, 10 mM HEPES. T cell hybridomas were irradiated 2200 rads before each assay.
The “peptide prepulse assay” was carried out under essentially the same conditions as described for the “simultaneous assay” with the following modifications. Fixed APC were first incubated for 6 h at 1×10^6 cells/mL in complete DMEM-5% FCS in 24-well microculture plates (1 mL/well) with antigenic peptide, followed by four washes with 10 volumes of DMEM-5% FCS. The cells were then exposed to varying concentrations of AE101 series peptide (64 μM, 16 μM, 4 μM, and 1 μM) for 24 h in the presence of the T cell hybridoma specific to the antigenic peptide. Interleukin release from these cultures was measured by proliferation of HT-2 cells to interleukins in supernatants transferred from the primary culture. Generally, a single dose of 64 μM of each AE101 series peptide was used. The baseline T cell response was measured by culturing T hybridoma cells with the antigenic peptide-prepulsed APC in the absence of AE101 series peptides.
Table 19: Activities of C-terminal truncation analogs of AE101 in an antigenic peptide prepulse assay. […] Paraformaldehyde-treated APC (fixed APC) expressing MHC class II molecules were incubated with antigenic peptide for 6 h (HEL106-116 for E^d and PGCC81-104 for E^k). After this incubation, the prepulsed APC were washed and cultured with T hybridoma cells and AE101 series peptides. The antigenic peptide concentration during the prepulse was 12 μM for Ed and 20 μM for E^k. The AE101 series peptide concentrations were 64 μM for E^d and 16 μM for E^k. […]

[1] = Table 24, AE peptide 64 μM, prepulse 0.625 μM antigenic peptide, supernatant 1:8
[2] = Table 25, AE peptide 64 μM, prepulse 2.5 μM antigenic peptide, supernatant 1:10
[3] = AE peptide 64 μM, supernatant 1:8
[4] = Table 20, AE peptide 16 μM, prepulse 20 μM antigenic peptide, supernatant 1:2
[5] = Table 22, AE peptide 16 μM, prepulse 20 μM antigenic peptide, supernatant 1:2
[6] = AE peptide 16 μM, supernatant 1:2

Ac-LRLKYPK-NH2 [AE301]
Activity in antigenic peptide prepulse assay, E^k (baseline = 1.00) [1]: 0.80 | Activity in antigenic peptide prepulse assay, E^k (baseline = 1.00) [2]: 0.86 | Activity in antigenic peptide prepulse assay, E^k (baseline = 1.0) [3]: 0.99

Ac-LR N KLPK-NH2 (Ac-LRNKLPK-NH2) [AE202]
Activity in antigenic peptide prepulse assay, E^k (baseline = 1.00) [2]: 0.84

Ac-Y D MKLPKSAK-NH2 [AE135]
Activity in antigenic peptide prepulse assay, E^k (baseline = 1.00) [4]: 0.95

Ac-LRMKLP[Cit]-NH2 [AE241]
Activity in antigenic peptide prepulse assay, E^k (baseline = 1.0) [3]: 0.99

Ac-ARMKLPKSAK-NH2 [AE120]
Activity in antigenic peptide prepulse assay, E^k (baseline = 1.00) [2]: 0.62

Ac-LRMK l PK-NH2 [AE164]
Activity in antigenic peptide prepulse assay, E^k (baseline = 1.00) [5]: 0.21 | Activity in antigenic peptide prepulse assay, E^k (baseline = 1.00) [1]: 0.67

Ac-ARNKNPK-NH2 [AE346]
Activity in antigenic peptide prepulse assay, E^k (baseline = 1.00) [2]: 0.77

Ac-Y[hArg]MKLPKSAK-NH2 [AE132]
Activity in antigenic peptide prepulse assay, E^k (baseline = 1.00) [4]: 0.1 | Activity in antigenic peptide prepulse assay, E^k (baseline = 1.0) [3]: 0.89

Ac-LR (mL) KyPk-NH2 [AE306]
Activity in antigenic peptide prepulse assay, E^k (baseline = 1.00) [1]: 1.00

Ac-Y[Orn]MKLPKSAK-NH2 [AE130]
Activity in antigenic peptide prepulse assay, E^k (baseline = 1.00) [4]: 0.66

Ac-LRMKL p K-NH2 [AE165]
Activity in antigenic peptide prepulse assay, E^k (baseline = 1.00) [5]: 0.22

Ac-LRM k LPK-NH2 [AE163]
Activity in antigenic peptide prepulse assay, E^k (baseline = 1.00) [5]: 0.99

Ac-YRMKL-NH2 [AE116]
Activity in antigenic peptide prepulse assay, E^k (baseline without AE peptide = 1.00) [6]: 0.10

Ac-l RMKLPK-NH2 [AE160]
Activity in antigenic peptide prepulse assay, E^k (baseline = 1.00) [5]: 0.47

Ac-YRMKLPKSAK-NH2 [AE109]
Activity in antigenic peptide prepulse assay, E^k (baseline without AE peptide = 1.00) [6]: 0.07 | Activity in antigenic peptide prepulse assay, E^k (baseline = 1.00) [4]: 0.28 | Activity in antigenic peptide prepulse assay, E^k (baseline = 1.00) (Table 21, AE peptide 16 μM, prepulse 20 μM antigenic peptide, supernatant 1:2): 0.07

Ac-LR m KLPK-NH2 [AE162]
Activity in antigenic peptide prepulse assay, E^k (baseline = 1.00) [5]: 0.61

Ac-Y F MKLPKSAK-NH2 [AE139]
Activity in antigenic peptide prepulse assay, E^k (baseline = 1.00) [4]: 0.38

Ac-LR (mL) KYPk-NH2 [AE305]
Activity in antigenic peptide prepulse assay, E^k (baseline = 1.00) [1]: 0.91

Ac-LRM M LPK-NH2 (Ac-LRMMLPK-NH2) [AE220]
Activity in antigenic peptide prepulse assay, E^k (baseline = 1.0) [3]: 0.92

Ac-YRMKLP-NH2 [AE115]
Activity in antigenic peptide prepulse assay, E^k (baseline without AE peptide = 1.00) [6]: 0.07

Ac-L[Cit]NKLPK-NH2 [AE343]
Activity in antigenic peptide prepulse assay, E^k (baseline = 1.00) [2]: 0.90

Ac-ARMKNPK-NH2 [AE345]
Activity in antigenic peptide prepulse assay, E^k (baseline = 1.00) [2]: 0.86

Ac-LRMK (mL) PK-NH2 [AE175]
Activity in antigenic peptide prepulse assay, E^k (baseline = 1) (Table 23, as printed: antigenic peptide prepulse 64 μM, AE peptide 1:8 μM, supernatant 1:2): 0.87 | Activity in antigenic peptide prepulse assay, E^k (baseline = 1.00) [1]: 0.87

Ac-LRLKWPK-NH2 [AE309]
Activity in antigenic peptide prepulse assay, E^k (baseline = 1.00) [1]: 0.81 | Activity in antigenic peptide prepulse assay, E^k (baseline = 1.00) [2]: 0.93 | Activity in antigenic peptide prepulse assay, E^k (baseline = 1.0) [3]: 0.98

Ac-YRMK-NH2 [AE117]
Activity in antigenic peptide prepulse assay, E^k (baseline without AE peptide = 1.00) [6]: 0.09

Ac-Y K MKLPKSAK-NH2 [AE134]
Activity in antigenic peptide prepulse assay, E^k (baseline = 1.00) [4]: 0.43 | Activity in antigenic peptide prepulse assay, E^k (baseline = 1.0) [3]: 0.98

Ac-ARNKLPK-NH2 [AE344]
Activity in antigenic peptide prepulse assay, E^k (baseline = 1.00) [2]: 0.76

Ac-LR (mL) KLPK-NH2 [AE302]
Activity in antigenic peptide prepulse assay, E^k (baseline = 1.00) [1]: 0.85
